Results reported in patent publication US8685936B2, “Sphingosine kinase inhibitor prodrugs” (Apogee Biotechnology Corporation, priority 2009, dated 2014).
Entries after “also recorded” stand apart in the source; their conditions may differ.

Columns and labels:
DSS-colitis model = experiment: Acute DSS-colitis model of inflammatory bowel disease; assay type: in vivo, C57BL/6 mice; details: for colon length (contraction of the colon), ester prodrugs: 4-5 per group (Example 17, FIG. 10)
Procedure: FIG. 7. Effects of Compound 1 and Compound 2 on the Disease Activity Index (DAI) in the acute DSS-colitis model. […] After 6 days, the DAI was calculated for each group. Values represent the mean±std. dev. for 5-6 mice per group. […] FIG. 8. Effects of Compound 1 and Compound 2 on colon length in the acute DSS-colitis model. […] After 6 days, the animals were sacrificed and the length of the colon was measured. Values represent the mean±std. dev. for 6-7 mice per group. In this model, colon length decreases as the disease progresses. […] FIG. 9. Effects of Compound 1 and Compound 2 on neutrophil infiltration into the colon in the acute DSS-colitis model. […] After 6 days, the animals were sacrificed and the colons were harvested. Myeloperoxidase activity (MPO) was measured and normalized by the protein concentration of the samples. Values represent the mean±std. dev. for 6-7 mice per group. In this model, MPO activity in the colon increases as a result of neutrophil infiltration into the colon as the disease progresses. […] FIG. 10. Effects of ester prodrugs on colon length in the acute DSS-colitis model. C57BL/6 mice were treated for 6 days as follows: 2% DSS in the drinking water and daily oral administration of Vehicle (described in FIG. 7); or 2% DSS in the drinking water and oral administration of 50 mg/kg the indicated ester prodrugs in Vehicle. After 6 days, the animals were sacrificed and the length of the colon was measured. Values represent the mean±std. dev. for 4-5 mice per group. In this model, colon length decreases as the disease progresses. […] FIG. 11. Effects of ester prodrugs on neutrophil infiltration into the colon in the acute DSS-colitis model. C57BL/6 mice were treated for 6 days as follows: 2% DSS in the drinking water and daily oral administration of Vehicle (described in FIG. 7); or 2% DSS in the drinking water and oral administration of 50 mg/kg the indicated ester prodrugs in Vehicle. After 6 days, the animals were sacrificed and the length of the colon was measured. Values represent the mean±std. dev. for 4-5 mice per group. In this model, MPO activity in the colon increases as a result of neutrophil infiltration into the colon as the disease progresses. […] In these experiments, male C57BL/6 mice were provided with standard rodent diet and water ad libitum. After their acclimation, the animals were randomly divided into groups of 5 or 6 for DSS (40,000 MW from ICN Biomedicals, Inc., Aurora, Ohio)- and drug-treatment. The Compounds were dissolved in a Vehicle consisting of 46.7% PEG 400, 46.7% of a solution of 0.375% Tween 80 in saline and 6.6% ethanol, and given once daily (starting on Day 0) by oral gavage in a volume of 0.1 mL per dose. The mice were given normal drinking water or 2% DSS (starting on Day 0) and treated orally with Compound 1 or Compound 2 at a dose of 50 mg/kg daily. The body weight of each animal was measured each day, and the Disease Activity Index (DAI) was scored for each animal on Day 6. On Day 6, the animals were sacrificed by cervical dislocation and the entire colon was removed and measured to the nearest 0.1 cm. The distal 3 cm of the colons were used for biochemical analyses of inflammation markers.

[1] = Conversion of Compound 2 to Compound 1 in living mice; plasma levels of Compound 1 by HPLC; assay type: in vivo
Procedure: FIG. 4. Conversion of Compound 2 into Compound 1 in vivo. Balb/C female mice, 6-8 weeks old, were dosed with either Compound 1 (●) or Compound 2 (♦) at 50 mg/kg by intravenous injection. Mice were euthanized at the indicate times after injection, and blood was harvested by cardiac puncture and plasma was prepared. The plasma was then extracted and analyzed for Compound 1 levels by HPLC.
To extend the in vitro studies described above, the ability of Compound 2 to be converted to Compound 1 in an in vivo test system was determined. In these experiments, Compound 1 or Compound 2 was dissolved in PEG400 and administered to female Balb/C mice at a dose of 50 mg/kg by intravenous injection. Mice were sacrificed and blood was removed via cardiac puncture at 2 minutes, 15 minutes, 30 minutes or 60 minutes. The concentration of Compound 1 in the blood of the animals at each of the time points was determined using HPLC with UV detection as described in the previous Example. […] In the case of administration of Compound 2, plasma concentrations of Compound 1 rose during the first 30 minutes and then were decreased with a half-time of clearance of approximately 20 minutes.

[2] = tested on: TNBS-induced Crohn's Disease model; experiment: TNBS-induced Crohn's Disease model; assay type: in vivo
Procedure: FIG. 12. Effects of Compound 1 and Compound 2 on colon histology in the TNBS-induced Crohn's Disease model. On Day 0, female Sprague-Dawley rats were administered TNBS using a stainless steel catheter that was inserted into the colon (8 cm proximal to the anus; 1.0 mL of solution containing 30 mg TNBS and 20% ethanol in PBS). On Days 0-5 animals received daily oral gavage of Vehicle (described in FIG. 7) or 50 mg/kg of Compound 1 or Compound 2 in Vehicle. On Day 6, the colons were removed, weighed and scored for macroscopic damage. The distal 6 cm were transected for subsequent histology and biochemical analyses. In this model, the macroscopic score is an index of histologic damage to the colon which increases as the disease progresses.
FIG. 13. Effects of Compound 1 and Compound 2 on colon weight in the TNBS-induced Crohn's Disease model. Colon weights were measured for the rats described in FIG. 12. Values represent the mean±std. dev. for 5-6 rats per group. In this model, colon weight increases as the disease progresses due to progressive inflammation-mediated edema.
FIG. 14. Effects of Compound 2 on neutrophil infiltration into the colon in the TNBS-induced Crohn's Disease model. Neutrophil infiltration was evaluated in the rats described in FIG. 12. Values represent the mean±std. dev. for 5-6 rats per group. In this model, MPO activity in the colon increases as a result of neutrophil infiltration into the colon as the disease progresses.
The trinitrobenzene sulfonic acid (TNBS) model in rats provides a rapid, reliable and reproducible IBD model that mimics the manifestations of Crohn's Disease. Application of the hapten TNBS to the colon in the presence of ethanol results in transmural infiltrative disease that is limited to the colon and appears to be an IL-12-driven, Th1-mediated immunologic response. […] TNBS induces measurable injury within 2 to 3 days, peak acute inflammation within a week, and gradual progression into chronic inflammation lasting about 2 months.
To test the efficacy of the Compounds, groups of female Sprague-Dawley rats were administered TNBS on Day 0 and treated with vehicle (as the negative control group), Compound 1 or Compound 2 on Days 0-5 by oral gavage at a dose of 50 mg/kg/day. […] Disease progression was evaluated by macroscopic score, colon weight and colon MPO activity at sacrifice. The macroscopic score measures macroscopic damage within the distal 6 cm of the colon using a system that considers the extent of and number of ulcerations.

[3] = tested on: Murine JC mammary adenocarcinoma cells; experiment: Cytotoxicity, MTS cell viability assay; assay type: cell-based; details: 72 hours
From the text: FIG. 5. Inhibition of tumor cell proliferation by Compound 1 and Compound 2. Murine JC mammary adenocarcinoma cells were exposed to the indicated concentrations of either Compound 1 (▪) or Compound 2 (▴) for 72 hr. At the end of the exposure, the number of viable tumor cells was quantified using the MTS assay. Values represent the fraction of surviving cells compared with DMSO-(vehicle)-treated control cells.
To further assess the biological efficacies of the Compounds in intact cells, Compound 1 and Compound 2 were evaluated for cytotoxicity using a murine breast cancer cell line. These experiments followed methods that have been extensively used. The cells were treated with varying doses of the test Compound for 72 hours, and then cell viability was measured using CellTiter 96® AQueous Non-Radioactive Cell Proliferation Assay (MTS) available from Promega Corporation. Values represent the mean±std. dev. percentage of cells that survive at each of the indicated concentrations of Compound 1 or Compound 2. […] However, the extent of cell killing and the potency for cell killing were greater for Compound 2 than Compound 1.

[4] = 2% DSS, 50 mg/kg oral, 6 days, C57BL/6 mice
[5] = TNBS Day 0, 50 mg/kg/day oral gavage Days 0-5, Day 6, female Sprague-Dawley rats

## CCC(=O)Oc1ccc(CCNC(=O)C23CC4CC(C2)CC(c2ccc(Cl)cc2)(C4)C3)cc1OC(=O)CC [Compound 3, Propionic acid 2-propionyloxy-5-(2-{[3-(4-chlorophenyl)-adamantane-1-carbonyl]-amino}ethyl)phenyl ester]
other
  melting point: 114 to 115 °C
DSS-colitis model; [4]
  colon length (contraction of the colon), ester prodrugs: effective in preventing the contraction of the colons

## CC(C)C(N)C(=O)Oc1cc(CCNC(=O)C23CC4CC(C2)CC(c2ccc(Cl)cc2)(C4)C3)ccc1O (stereo not drawn) [Compound 6, 2-Amino-3-methyl-butyric acid 5-(2-{[3-(4-chlorophenyl)adamantane-1-carbonyl]amino}ethyl)-2-hydroxyphenyl ester]
DSS-colitis model; [4]
  colon length (contraction of the colon), ester prodrugs: effective in preventing the contraction of the colons
DSS-colitis model; 2% DSS, 50 mg/kg oral, 6 days, C57BL/6 mice, 4-5 per group (Example 17, FIG. 11)
  colonic MPO activity, ester prodrugs: all of the Compounds except Compound 6 substantially prevented the elevation of colonic MPO activity

## CCCC(=O)Oc1ccc(CCNC(=O)C23CC4CC(C2)CC(c2ccc(Cl)cc2)(C4)C3)cc1OC(=O)CCC [Compound 4, Butyric acid 2-butyryloxy-5-(2-{[3-(4-chlorophenyl)-adamantane-1-carbonyl]-amino}ethyl)phenyl ester]
other
  melting point: 78 to 80 °C
DSS-colitis model; 2% DSS, 50 mg/kg oral, 6 days, C57BL/6 mice, 50 mg/kg
  colon length (contraction of the colon), ester prodrugs: effective in preventing the contraction of the colons; also recorded: slightly less effective

## O=C(NCCc1ccc(O)c(O)c1)C12CC3CC(C1)CC(c1ccc(Cl)cc1)(C3)C2 [Compound 1, 3-(4-Chlorophenyl)-adamantane-1-carboxylic acid [2-(3,4-dihydroxyphenyl)-ethyl]amide]
[1]; 50 mg/kg intravenous, female Balb/C mice, sampling at 2, 15, 30, 60 minutes
  time of maximum plasma concentration of Compound 1: earliest time point
[1]; 50 mg/kg of the named compound by intravenous injection in PEG400, female Balb/C mice, Compound 1 measured
  half-time for clearance of Compound 1 from plasma: approximately 5 minutes
DSS-colitis model; 2% DSS in drinking water, 50 mg/kg daily oral, Day 6, C57BL/6 mice
  Disease Activity Index (DAI): reduced the intensity of the IBD manifestations
DSS-colitis model; 2% DSS, 50 mg/kg daily oral, Day 6, C57BL/6 mice (Example 16, FIG. 9)
  colon myeloperoxidase (MPO) activity (neutrophil infiltration): markedly attenuated
DSS-colitis model; 2% DSS, 50 mg/kg oral, Day 6, C57BL/6 mice (Example 16, FIG. 8)
  colon length: colons of significantly longer length
[2]; 50 mg/kg/day oral gavage Days 0-5, rats sacrificed on Day 6
  Compound-related toxicities: no Compound-related toxicities apparent
[2]; [5]
  Macroscopic Score of colon damage: but not Compound 1, reduced the Macroscopic Score; also recorded: much less active
  colon weight: but not Compound 1 reduced the elevation of the colon weight; also recorded: much less active
[3]
  inhibition of tumor cell proliferation (cell viability): can inhibit tumor cell proliferation
